Values after ≈ are worked out from the molar mass of the structure shown. Where two headings read alike, the source gives them in different places.
Experiments:
S. aureus ATCC 25923 [1] = assay: Antibacterial activity, post-exposure on preformed 18-h-old biofilms; format: cell-based, Staphylococcus aureus; conditions: ± SD; for inhibition at 25 µM / inhibition at 50 µM / inhibition at 100 µM / inhibition at 200 µM: Staphylococcus aureus; for inhibition at 25 µM: ATCC25923, 25 µM; for inhibition at 50 µM: ATCC25923, 50 µM; for inhibition at 100 µM: ATCC25923, 100 µM; for inhibition at 200 µM: ATCC25923, 200 µM
Summary of the method: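 Biofilms grown 18 h without compound, medium then replaced and compound added for a further 24 h. Planktonic OD and resazurin (20 μM final) fluorescence (ex 560/em 590 nm) read; washed biofilms stained with 20 μM resazurin 30 min at 37 °C, then ethanol-fixed and crystal violet-stained, absorbance 595 nm.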

A. baumannii NCTC 13423 = assay: Antibacterial activity, pre-exposure; format: cell-based, Acinetobacter baumannii; conditions: for Average inhibition %, biofilms viability / Average inhibition %, planktonic cells viability / inhibition at 10 µM / inhibition at 15 µM / inhibition at 25 µM / inhibition at 50 µM: A. baumannii NCTC 13423, pre-exposure, ± SD; for inhibition at 10 µM / inhibition at 15 µM / inhibition at 25 µM / inhibition at 50 µM / MIC: Acinetobacter baumannii, NCTC13423
Summary of the method: (§1)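 Compounds in DMSO were plated before bacteria were added (pre-exposure) and incubated 18 h aerobically at 37 °C with shaking. Planktonic cells were read by OD and resazurin fluorescence (20 μM final; ex 560/em 590 nm). Biofilms were read by resazurin, then crystal violet (A595) for total biomass.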

P. aeruginosa ATCC 9027 = assay: Antibacterial activity, pre-exposure; format: cell-based, Pseudomonas aeruginosa; conditions: for Average inhibition %, biofilms viability / Average inhibition %, planktonic cells viability / inhibition at 50 µM / inhibition at 100 µM / inhibition at 150 µM / inhibition at 200 µM: P. aeruginosa ATCC 9027, pre-exposure, ± SD; for inhibition at 50 µM / inhibition at 100 µM / inhibition at 150 µM / inhibition at 200 µM: Pseudomonas aeruginosa, ATCC9027
Summary of the method: as §1

S. aureus ATCC 25923 [2] = assay: Antibacterial activity, pre-exposure (planktonic cells and biofilm formation); format: cell-based, Staphylococcus aureus; conditions: for MIC / inhibition at 5 µM / inhibition at 10 µM / inhibition at 15 µM / inhibition at 25 µM: Staphylococcus aureus, ATCC25923; for inhibition at 5 µM / inhibition at 10 µM / inhibition at 15 µM / inhibition at 25 µM / Average inhibition %, biofilms viability / Average inhibition %, planktonic cells viability: pre-exposure, ± SD
Summary of the method: as §1

[3] = read-out: Average inhibition %, biofilms biomass
[4] = read-out: Average inhibition %, planktonic cells turbidity
[5] = 10 µM, read-out: Average inhibition %, biofilms biomass
[6] = 10 µM, read-out: Average inhibition %, planktonic cells turbidity
[7] = 15 µM, read-out: Average inhibition %, biofilms biomass
[8] = 15 µM, read-out: Average inhibition %, planktonic cells turbidity
[9] = 25 µM, read-out: Average inhibition %, biofilms biomass
[10] = 25 µM, read-out: Average inhibition %, planktonic cells turbidity
[11] = 50 µM, read-out: Average inhibition %, biofilms biomass
[12] = 50 µM, read-out: Average inhibition %, planktonic cells turbidity

Structure (SMILES): CCCCCC/C=C/c1ccc(CCC(N)(CO)CO)cc1 [Compound 42, (E)-2-Amino-2-[4-(oct-1-en-1-yl)phenethyl]propane-1,3-diol]
- Average inhibition %, biofilms viability (S. aureus ATCC 25923 [1]; 25 µM): 20 ± 6.1%
- Average inhibition %, planktonic cells viability (S. aureus ATCC 25923 [1]; 25 µM): 2.8 ± 5%
- Average inhibition %, biofilms viability (S. aureus ATCC 25923 [1]; 50 µM): 42 ± 16%
- Average inhibition %, planktonic cells viability (S. aureus ATCC 25923 [1]; 50 µM): 19.1 ± 18.9%
- Average inhibition %, biofilms viability (S. aureus ATCC 25923 [1]; 100 µM): 48.3 ± 2.3%
- Average inhibition %, planktonic cells viability (S. aureus ATCC 25923 [1]; 100 µM): 68.7 ± 18.2%
- Average inhibition %, biofilms viability (S. aureus ATCC 25923 [1]; 200 µM): 44.8 ± 10.4%
- Average inhibition %, planktonic cells viability (S. aureus ATCC 25923 [1]; 200 µM): 35.1 ± 44.8%
- inhibition at 25 µM (S. aureus ATCC 25923 [1]; [3]): 39 ± 2.5%
- inhibition at 25 µM (S. aureus ATCC 25923 [1]; [4]): 12 ± 9.6%
- inhibition at 50 µM (S. aureus ATCC 25923 [1]; [3]): 54.1 ± 1.9%
- inhibition at 50 µM (S. aureus ATCC 25923 [1]; [4]): 29.7 ± 16.3%
- inhibition at 100 µM (S. aureus ATCC 25923 [1]; [3]): 54.8 ± 5.9%
- inhibition at 100 µM (S. aureus ATCC 25923 [1]; [4]): 56.9 ± 19.5%
- inhibition at 200 µM (S. aureus ATCC 25923 [1]; [3]): 59.8 ± 21%
- inhibition at 200 µM (S. aureus ATCC 25923 [1]; [4]): 46.2 ± 27.3%
- Average inhibition %, biofilms viability (A. baumannii NCTC 13423; 10 µM): 0.4 ± 0.3%
- Average inhibition %, planktonic cells viability (A. baumannii NCTC 13423; 10 µM): 13.5 ± 3.1%
- Average inhibition %, biofilms viability (A. baumannii NCTC 13423; 15 µM): 12.8 ± 7.2%
- Average inhibition %, planktonic cells viability (A. baumannii NCTC 13423; 15 µM): 6 ± 6.6%
- Average inhibition %, biofilms viability (A. baumannii NCTC 13423; 25 µM): 47.6 ± 37.1%
- Average inhibition %, planktonic cells viability (A. baumannii NCTC 13423; 25 µM): 33.1 ± 52.5%
- Average inhibition %, biofilms viability (A. baumannii NCTC 13423; 50 µM): 87.7 ± 9.8%
- Average inhibition %, planktonic cells viability (A. baumannii NCTC 13423; 50 µM): 81 ± 27.7%
- inhibition at 10 µM (A. baumannii NCTC 13423; [5]): 2.4 ± 4.3%
- inhibition at 10 µM (A. baumannii NCTC 13423; [6]): 0%
- inhibition at 15 µM (A. baumannii NCTC 13423; [7]): 6.2 ± 6%
- inhibition at 15 µM (A. baumannii NCTC 13423; [8]): 0.6 ± 1%
- inhibition at 25 µM (A. baumannii NCTC 13423; [9]): 18.2 ± 21.6%
- inhibition at 25 µM (A. baumannii NCTC 13423; [10]): 40.8 ± 42.7%
- inhibition at 50 µM (A. baumannii NCTC 13423; [11]): 67.2 ± 13.9%
- inhibition at 50 µM (A. baumannii NCTC 13423; [12]): 83.1 ± 17.5%
- MIC (A. baumannii NCTC 13423; pre-exposure, Inactive = no activity up to 50 μM, > = some inhibition but no MIC reached, read-out: MIC A. baumannii NCTC 13423): > 50 µM
- MIC (A. baumannii NCTC 13423; supplementary molecular formula strings sheet, read-out: MIC (A. baumannii)): > 50 µM
- Average inhibition %, biofilms viability (P. aeruginosa ATCC 9027; 50 µM): 3.9 ± 6.8%
- Average inhibition %, planktonic cells viability (P. aeruginosa ATCC 9027; 50 µM): 24.8 ± 10.1%
- Average inhibition %, biofilms viability (P. aeruginosa ATCC 9027; 100 µM): 1.5 ± 2.6%
- Average inhibition %, planktonic cells viability (P. aeruginosa ATCC 9027; 100 µM): 15.1 ± 18%
- Average inhibition %, biofilms viability (P. aeruginosa ATCC 9027; 150 µM): 0.9 ± 1.7%
- Average inhibition %, planktonic cells viability (P. aeruginosa ATCC 9027; 150 µM): 18.9 ± 31%
- Average inhibition %, biofilms viability (P. aeruginosa ATCC 9027; 200 µM): 0 ± 0%
- Average inhibition %, planktonic cells viability (P. aeruginosa ATCC 9027; 200 µM): 27 ± 45%
- inhibition at 50 µM (P. aeruginosa ATCC 9027; [11]): 30.1 ± 8.8%
- inhibition at 50 µM (P. aeruginosa ATCC 9027; [12]): 16.3 ± 5.3%
- inhibition at 100 µM (P. aeruginosa ATCC 9027; 100 µM, read-out: Average inhibition %, biofilms biomass): 30.3 ± 0.8%
- inhibition at 100 µM (P. aeruginosa ATCC 9027; 100 µM, read-out: Average inhibition %, planktonic cells turbidity): 37.1 ± 13.5%
- inhibition at 150 µM (P. aeruginosa ATCC 9027; 150 µM, read-out: Average inhibition %, biofilms biomass): 27.7 ± 2.1%
- inhibition at 150 µM (P. aeruginosa ATCC 9027; 150 µM, read-out: Average inhibition %, planktonic cells turbidity): 45.1 ± 17.4%
- inhibition at 200 µM (P. aeruginosa ATCC 9027; 200 µM, read-out: Average inhibition %, biofilms biomass): 36.2 ± 10.3%
- inhibition at 200 µM (P. aeruginosa ATCC 9027; 200 µM, read-out: Average inhibition %, planktonic cells turbidity): 53.5 ± 14.1%
- MIC P. aeruginosa ATCC 9027 (P. aeruginosa ATCC 9027; pre-exposure, Inactive = no activity up to 200 μM, > = some inhibition but no MIC reached): Inactive
- MIC (S. aureus ATCC 25923 [2]; lowest concentration with no visible growth (>90% inhibition of turbidity and viability of planktonic cells), 18 h, read-out: MIC S. aureus ATCC 25923): 15 to 25 µM (≈ 4.58 to 7.64 µg/mL)
- inhibition at 5 µM (S. aureus ATCC 25923 [2]; 5 µM, read-out: Average inhibition %, biofilms biomass): 41 ± 12.1%
- inhibition at 5 µM (S. aureus ATCC 25923 [2]; 5 µM, read-out: Average inhibition %, planktonic cells turbidity): 18.8 ± 12.6%
- inhibition at 10 µM (S. aureus ATCC 25923 [2]; [5]): 62.5 ± 24.1%
- inhibition at 10 µM (S. aureus ATCC 25923 [2]; [6]): 53.3 ± 32.3%
- inhibition at 15 µM (S. aureus ATCC 25923 [2]; [7]): 80.5 ± 26.4%
- inhibition at 15 µM (S. aureus ATCC 25923 [2]; [8]): 84.6 ± 26.1%
- inhibition at 25 µM (S. aureus ATCC 25923 [2]; [9]): 95.1 ± 0.5%
- inhibition at 25 µM (S. aureus ATCC 25923 [2]; [10]): 99.4 ± 0.5%
- MIC (S. aureus ATCC 25923 [2]; read-out: MIC (S. aureus)): 15 to 25 µM (≈ 4.58 to 7.64 µg/mL)
- Average inhibition %, biofilms viability (S. aureus ATCC 25923 [2]; 5 µM): 16.3 ± 4.8%
- Average inhibition %, planktonic cells viability (S. aureus ATCC 25923 [2]; 5 µM): 1.7 ± 3%
- Average inhibition %, biofilms viability (S. aureus ATCC 25923 [2]; 10 µM): 55.9 ± 31%
- Average inhibition %, planktonic cells viability (S. aureus ATCC 25923 [2]; 10 µM): 31.6 ± 54.9%
- Average inhibition %, biofilms viability (S. aureus ATCC 25923 [2]; 15 µM): 81.1 ± 32.3%
- Average inhibition %, planktonic cells viability (S. aureus ATCC 25923 [2]; 15 µM): 66.4 ± 57.5%
- Average inhibition %, biofilms viability (S. aureus ATCC 25923 [2]; 25 µM): 99.2 ± 0.8%
- Average inhibition %, planktonic cells viability (S. aureus ATCC 25923 [2]; 25 µM): 99.6 ± 0.2%

Reference: PMC8296573, “Synthesis and Biological Evaluation of Fingolimod Derivatives as Antibacterial Agents” (ACS Omega, 2021)
